Where only a bound is given, the exact number is not on record here.

What all share (format): functional, cell-based
One test relates to HeLa. In words: Cytotoxicity against human HeLa cells after 48 hrs by MTT assay.
In another test the test system is NCI-H460. In words: Cytotoxicity against human NCI-H460 cells after 48 hrs by MTT assay. Particulars: NCI-H460, 48 h.
A further test relates to MGC-803. In words: Cytotoxicity against human MGC803 cells after 48 hrs by MTT assay. Particulars: MGC-803, 48 h.
Test [1] is described as follows: Cytotoxicity against human HL7702 cells after 48 hrs by MTT assay. Particulars: L02, 48 h.

Regarding `CC(C)c1ccc2c(c1)C(=O)C[C@H]1[C@](C)(C(=O)N[C@H](Cc3ccccc3)C(=O)Nc3ccc(F)cc3)CCC[C@]21C`, the IC50 came out at 16.3 µM with HeLa, 34.3 µM in the test on NCI-H460, 39.6 µM with MGC-803 and 52.4 µM in test [1].
In the case of `COc1ccccc1NC(=O)[C@H](Cc1ccccc1)NC(=O)[C@]1(C)CCC[C@]2(C)c3ccc(C(C)C)cc3/C(=N\O)C[C@@H]12`, the IC50 in the test with HeLa stood at 19.3 µM; with NCI-H460, 31 µM; in the test with MGC-803, 11.9 µM; in test [1], 58.8 µM.
Consider `COc1ccc(NC(=O)[C@@H](Cc2ccccc2)NC(=O)[C@]2(C)CCC[C@]3(C)c4ccc(C(C)C)cc4C(=O)C[C@@H]23)cc1`, for which the IC50 in the test on HeLa amounted to 16.3 µM; with NCI-H460, 34.3 µM; with MGC-803 it was 39.6 µM; in test [1], 55.4 µM.
For `CC(C)c1ccc2c(c1)C(=O)C[C@H]1[C@](C)(C(=O)N[C@@H](Cc3ccccc3)C(=O)Nc3ccc(Cl)cc3)CCC[C@]21C`, the IC50 in the test with HeLa worked out at 36 µM; in the test on NCI-H460, 49.1 µM; with MGC-803 it was 29 µM; in test [1] it was 57.8 µM.
Regarding `CC(C)c1ccc2c(c1)C(=O)C[C@H]1[C@](C)(C(=O)N[C@H](Cc3ccccc3)C(=O)Nc3ccccc3)CCC[C@]21C`, the IC50 in the test with HeLa was 57.8 µM; in the test with NCI-H460, 51.9 µM; in the test on MGC-803, 30.5 µM; in test [1] it was 53.3 µM.
Regarding `CC(C)c1ccc2c(c1)/C(=N\O)C[C@H]1[C@](C)(C(=O)N[C@@H](Cc3ccccc3)C(=O)Nc3ccc(F)cc3)CCC[C@]21C`, the IC50 in the test on HeLa amounted to 20.7 µM; with NCI-H460 it was 23.4 µM; in the test with MGC-803, 24.4 µM; in test [1] it was 49.7 µM.
Consider `COc1cc(NC(=O)[C@@H](Cc2ccccc2)NC(=O)[C@]2(C)CCC[C@]3(C)c4ccc(C(C)C)cc4/C(=N\O)C[C@@H]23)cc(OC)c1OC`, for which the IC50 is 32 µM with HeLa, 36.1 µM with NCI-H460, 15.6 µM in the test with MGC-803 and 56.2 µM in test [1].
The corresponding values for `COc1cc(NC(=O)[C@H](Cc2ccccc2)NC(=O)[C@]2(C)CCC[C@]3(C)c4ccc(C(C)C)cc4/C(=N\O)C[C@@H]23)cc(OC)c1OC` are 25.9 µM, 36.6 µM, 17.5 µM and 49.6 µM.
Turning to `CC(C)c1ccc2c(c1)C(=O)C[C@H]1[C@](C)(C(=O)N[C@@H](Cc3ccccc3)C(=O)Nc3ccccc3F)CCC[C@]21C`, the IC50 in the test on HeLa is 18.9 µM; in the test on NCI-H460 it was 57.1 µM; in the test on MGC-803 it was 18.9 µM; in test [1] it was 47.6 µM.
On to `COc1ccc(NC(=O)[C@H](Cc2ccccc2)NC(=O)[C@]2(C)CCC[C@]3(C)c4ccc(C(C)C)cc4/C(=N\O)C[C@@H]23)cc1`, for which the IC50 in the test with HeLa is 10.9 µM; in the test on NCI-H460 it was 32 µM; in the test on MGC-803, 14.6 µM; in test [1], 49.6 µM.
The corresponding values for `CC(C)c1ccc2c(c1)/C(=N\O)C[C@H]1[C@](C)(C(=O)N[C@@H](Cc3ccccc3)C(=O)Nc3ccccc3F)CCC[C@]21C` are 34.1 µM, 44.8 µM, 17.8 µM and 57.5 µM.
On to `COc1ccc(NC(=O)[C@H](Cc2ccccc2)NC(=O)[C@]2(C)CCC[C@]3(C)c4ccc(C(C)C)cc4C(=O)C[C@@H]23)cc1`, for which the IC50 is 52.3 µM with HeLa, over 100 µM in the test on NCI-H460, 49 µM in the test with MGC-803 and 59.6 µM in test [1].
For the molecule `COc1cc(NC(=O)[C@@H](Cc2ccccc2)NC(=O)[C@]2(C)CCC[C@]3(C)c4ccc(C(C)C)cc4C(=O)C[C@@H]23)cc(OC)c1OC`, the half-inhibitory concentration (IC50) with HeLa was 19.2 µM; in the test with NCI-H460, 27.9 µM; in the test on MGC-803 it was 26.4 µM; in test [1], 57.4 µM.
With `CC(C)c1ccc2c(c1)/C(=N\O)C[C@H]1[C@](C)(C(=O)N[C@@H](Cc3ccccc3)C(=O)Nc3ccccc3Cl)CCC[C@]21C`, the IC50 worked out at 22.8 µM in the test with HeLa, 36.5 µM in the test with NCI-H460, 22.4 µM in the test with MGC-803 and 45.9 µM in test [1].
As for `CC(C)c1ccc2c(c1)C(=O)C[C@H]1[C@](C)(C(=O)N[C@H](Cc3ccccc3)C(=O)Nc3ccc(Cl)cc3)CCC[C@]21C`, the IC50 in the test with HeLa came out at 32.3 µM; in the test with NCI-H460, 23.4 µM; in the test with MGC-803, 20.2 µM; in test [1], 76.3 µM.
For `CC(C)c1ccc2c(c1)/C(=N\O)C[C@H]1[C@](C)(C(=O)N[C@H](Cc3ccccc3)C(=O)Nc3ccccc3F)CCC[C@]21C`, the IC50 with HeLa is 20.8 µM; in the test on NCI-H460, 42.5 µM; in the test with MGC-803, 13.4 µM; in test [1], 54.8 µM.
With `CC(C)c1ccc2c(c1)/C(=N\O)C[C@H]1[C@](C)(C(=O)N[C@@H](Cc3ccccc3)C(=O)Nc3ccc(Cl)cc3)CCC[C@]21C`, the IC50 came to 101 µM with HeLa, 102 µM with NCI-H460, 25.8 µM with MGC-803 and 60.8 µM in test [1].
In the case of `O=c1[nH]cc(F)c(=O)[nH]1` [FLUOROURACIL], the figures for the half-maximal inhibitory concentration (IC50) in the test on HeLa and with MGC-803 were 36.5 µM and 30.4 µM, respectively.
With `COc1ccccc1NC(=O)[C@@H](Cc1ccccc1)NC(=O)[C@]1(C)CCC[C@]2(C)c3ccc(C(C)C)cc3C(=O)C[C@@H]12`, the IC50 turned out to be 40.7 µM in the test with HeLa, 85.4 µM with NCI-H460, 30.9 µM in the test with MGC-803 and 55.7 µM in test [1].
`CC(C)c1ccc2c(c1)C(=O)C[C@H]1[C@](C)(C(=O)N[C@H](Cc3ccccc3)C(=O)Nc3ccccc3Cl)CCC[C@]21C`: the IC50 in the test on HeLa was over 100 µM; with NCI-H460, 50 µM; in the test on MGC-803 it was 29.7 µM; in test [1], 46.5 µM.
For `COc1ccccc1NC(=O)[C@@H](Cc1ccccc1)NC(=O)[C@]1(C)CCC[C@]2(C)c3ccc(C(C)C)cc3/C(=N\O)C[C@@H]12`, the IC50 with HeLa was found to be 18.4 µM; in the test on NCI-H460, 37.1 µM; with MGC-803, 18.7 µM; in test [1] it was 57.9 µM.
For the molecule `COc1ccc(NC(=O)[C@@H](Cc2ccccc2)NC(=O)[C@]2(C)CCC[C@]3(C)c4ccc(C(C)C)cc4/C(=N\O)C[C@@H]23)cc1`, the IC50 was determined as 17.3 µM with HeLa, 20.4 µM with NCI-H460, 15 µM in the test with MGC-803 and 56.2 µM in test [1].
Take `CC(C)c1ccc2c(c1)/C(=N\O)C[C@H]1[C@](C)(C(=O)N[C@@H](Cc3ccccc3)C(=O)Nc3ccccc3)CCC[C@]21C`: the IC50 with HeLa is 16 µM; in the test on NCI-H460, 41.3 µM; in the test on MGC-803, 16 µM; in test [1], 45.9 µM.
As for `CC(C)c1ccc2c(c1)CC[C@H]1[C@](C)(C(=O)O)CCC[C@]21C` [DEHYDROABIETIC ACID], the 50% inhibitory concentration (IC50) in the test on MGC-803 is over 100 µM.
Turning to `CC(C)c1ccc2c(c1)C(=O)C[C@H]1[C@](C)(C(=O)N[C@@H](Cc3ccccc3)C(=O)Nc3ccc(F)cc3)CCC[C@]21C`, the half-maximal inhibitory concentration (IC50) was found to be 63.5 µM in the test with HeLa, 61.6 µM in the test with NCI-H460, 20.1 µM with MGC-803 and 66.5 µM in test [1].
The corresponding values for `CC(C)c1ccc2c(c1)C(=O)C[C@H]1[C@](C)(C(=O)N[C@H](Cc3ccccc3)C(=O)Nc3ccccc3F)CCC[C@]21C` are 25.9 µM, 61.4 µM, 18.9 µM and 53.3 µM.
As for `CC(C)c1ccc2c(c1)/C(=N\O)C[C@H]1[C@](C)(C(=O)N[C@H](Cc3ccccc3)C(=O)Nc3ccccc3Cl)CCC[C@]21C`, the IC50 amounted to 26.6 µM with HeLa, 26.9 µM in the test with NCI-H460, 17 µM in the test with MGC-803 and 48.2 µM in test [1].
The matching figures for `CC(C)c1ccc2c(c1)/C(=N\O)C[C@H]1[C@](C)(C(=O)N[C@H](Cc3ccccc3)C(=O)Nc3ccc(Cl)cc3)CCC[C@]21C`: 20.2 µM, 17.6 µM, 17.8 µM and 57.9 µM.
Regarding `CC(C)c1ccc2c(c1)C(=O)C[C@H]1[C@](C)(C(=O)N[C@@H](Cc3ccccc3)C(=O)Nc3ccccc3)CCC[C@]21C`, the IC50 is 29.1 µM with HeLa, 29 µM in the test on NCI-H460, 27.6 µM in the test with MGC-803 and 51.6 µM in test [1].
Turning to `COc1cc(NC(=O)[C@H](Cc2ccccc2)NC(=O)[C@]2(C)CCC[C@]3(C)c4ccc(C(C)C)cc4C(=O)C[C@@H]23)cc(OC)c1OC`, the IC50 in the test with HeLa was 49.6 µM; in the test with NCI-H460, 54.6 µM; in the test with MGC-803, 21.3 µM; in test [1], 69.5 µM.
Take `CC(C)c1ccc2c(c1)/C(=N\O)C[C@H]1[C@](C)(C(=O)N[C@H](Cc3ccccc3)C(=O)Nc3ccc(F)cc3)CCC[C@]21C`: the IC50 with HeLa turned out to be 20.6 µM; in the test with NCI-H460, 58.6 µM; with MGC-803, 17.3 µM; in test [1], 53.8 µM.
As for `COc1ccccc1NC(=O)[C@H](Cc1ccccc1)NC(=O)[C@]1(C)CCC[C@]2(C)c3ccc(C(C)C)cc3C(=O)C[C@@H]12`, the half-inhibitory concentration (IC50) came to 14.7 µM in the test with HeLa, 33.8 µM with NCI-H460, 39.4 µM in the test on MGC-803 and 57.5 µM in test [1].

These data come from ChEMBL document CHEMBL3352110, “Design, synthesis and in vitro evaluation of novel dehydroabietic acid derivatives containing a dipeptide moiety as potential anticancer agents” (Eur J Med Chem, 2015).
